The source of these data is article PMC3436903 (Chembiochem : a European journal of chemical biology, 2011).

This data set can be described thus: pH-dependence of keto acid-lactol equilibrium by 1H-NMR in D2O. The data set is classed as physicochemical.

Molecules are shown by their SMILES.

For the compound `Nc1ncnc2c1ncn2[C@@H]1O[C@H](CNS(=O)(=O)NC(=O)CCC(=O)c2ccccc2C(=O)O)[C@@H](O)[C@H]1O` [Inhibitor 5], the “pD range of rapid equilibration of keto acid and lactol forms” value (intermediate chemical shifts) is listed as 1.32–4.32 pD. Also, the “pD at which the lactol form is observed” value (ketone α-protons at ≈2.45 ppm) amounted to 0.89 pD. Also, where the note is “ketone α-protons at ≈3.2 ppm”, the “pD at which the keto acid form is observed” value is at least 5.70 pD.
